In patent US20220062240A1, “METHODS OF TREATING CANCER USING A CLK INHIBITOR” (BioSplice Therapeutics, Inc., priority 2018, published 2022):
Where two headings read alike, the source gives them in different places.

Assays:
BT-549 = experiment: CellTiter-Glo Viability Assay, breast cancer; format: cell-based; conditions: Homo sapiens, BT-549, 96 h
CAMA1 = experiment: CellTiter-Glo Viability Assay, breast cancer; format: cell-based; conditions: Homo sapiens, CAMA-1, 96 h
DU4475 = experiment: CellTiter-Glo Viability Assay, breast cancer; format: cell-based; conditions: Homo sapiens, DU-4475, 96 h
HCC1599 = experiment: CellTiter-Glo Viability Assay, breast cancer; format: cell-based; conditions: Homo sapiens, HCC1599, 96 h
MCF7 = experiment: CellTiter-Glo Viability Assay, breast cancer; format: cell-based; conditions: Homo sapiens, MCF7, 96 h
MDA-MB-231-Luc = experiment: CellTiter-Glo Viability Assay, breast cancer; format: cell-based; conditions: Homo sapiens, 96 h
T47D = experiment: CellTiter-Glo Viability Assay, breast cancer; format: cell-based; conditions: Homo sapiens, 96 h
ZR-75-1 = experiment: CellTiter-Glo Viability Assay, breast cancer; format: cell-based; conditions: Homo sapiens, ZR-75-1, 96 h
all 50 cell lines = experiment: CellTiter-Glo Viability Assay, average across all cell lines; format: cell-based; conditions: Homo sapiens, read-out: average EC50 for inhibition of cancer cell proliferation
How it was run: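 Human cancer cell lines from breast, colorectal, haematopoietic/lymphoid, liver, lung, ovarian, pancreatic and prostate tumours were seeded at 300-3,000 cells/well and exposed to compound in duplicate for four days at 37° C, 5% CO2. Viable cells were measured by ATP luminescence; EC50 values came from dose-response curves.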

[1] = system: colorectal cancer (6 cell lines); experiment: CellTiter-Glo Viability Assay, colorectal cancer; format: cell-based; conditions: Homo sapiens
[2] = system: haematopoietic & lymphoid tumors (13 cell lines); experiment: CellTiter-Glo Viability Assay, haematopoietic & lymphoid tumors; format: cell-based; conditions: Homo sapiens
[3] = system: liver cancer (3 cell lines); experiment: CellTiter-Glo Viability Assay, liver cancer; format: cell-based; conditions: Homo sapiens
[4] = system: lung cancer (4 cell lines); experiment: CellTiter-Glo Viability Assay, lung cancer; format: cell-based; conditions: Homo sapiens
[5] = system: ovarian cancer (4 cell lines); experiment: CellTiter-Glo Viability Assay, ovarian cancer; format: cell-based; conditions: Homo sapiens
[6] = system: pancreatic cancer (8 cell lines); experiment: CellTiter-Glo Viability Assay, pancreatic cancer; format: cell-based; conditions: Homo sapiens
[7] = system: prostate cancer (5 cell lines); experiment: CellTiter-Glo Viability Assay, prostate cancer; format: cell-based; conditions: Homo sapiens
CLK3 = CLK3 (Homo sapiens, UniProt P49761); experiment: CLK3 kinase activity assay (Z-lyte, Ser/Thr 18 peptide)
CLK3, sequence (P49761 whole entry): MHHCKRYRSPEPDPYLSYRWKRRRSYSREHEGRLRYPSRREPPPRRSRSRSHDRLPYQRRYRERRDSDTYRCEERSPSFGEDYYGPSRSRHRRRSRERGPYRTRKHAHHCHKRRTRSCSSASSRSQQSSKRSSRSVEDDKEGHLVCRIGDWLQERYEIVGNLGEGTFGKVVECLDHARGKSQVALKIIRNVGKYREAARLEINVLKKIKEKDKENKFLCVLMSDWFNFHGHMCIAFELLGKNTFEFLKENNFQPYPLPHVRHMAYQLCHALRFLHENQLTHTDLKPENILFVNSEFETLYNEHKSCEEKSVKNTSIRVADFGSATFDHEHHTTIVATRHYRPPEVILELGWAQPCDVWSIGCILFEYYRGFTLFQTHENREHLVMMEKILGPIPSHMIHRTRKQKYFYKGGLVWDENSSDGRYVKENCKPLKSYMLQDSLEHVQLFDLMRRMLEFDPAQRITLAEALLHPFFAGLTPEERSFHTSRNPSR

Work on `CN1CCN(C(=O)C(C)(C)c2ccc(C(=O)Nc3cn4cc(-c5ccncc5)ccc4n3)cc2)CC1` [Compound 27] yielded an EC50 (BT-549) of 3610 nM, an EC50 (CAMA1) of 4250 nM and an EC50 (DU4475) of 1990 nM. For the same molecule, the EC50 (HCC1599) was 8040 nM, the EC50 (MCF7) was 3970 nM and the EC50 (MDA-MB-231-Luc) was 3650 nM. It also gave an EC50 (T47D) of 4100 nM, an EC50 (ZR-75-1) of 3910 nM and an EC50 (all 50 cell lines) of 2840 nM. The EC50 ([1]; DLD-1, read-out: Colorectal cancer, EC50 (μM) DLD-1) was 1.65 µM, the EC50 ([1]; HCT-116, read-out: Colorectal cancer, EC50 (μM) HCT116) was 1.08 µM and the EC50 ([1]; HT-29, read-out: Colorectal cancer, EC50 (μM) HT29) was 2.38 µM. It also gave an EC50 ([1]; SW48, read-out: Colorectal cancer, EC50 (μM) SW48) of 0.675 µM, an EC50 ([1]; SW480, read-out: Colorectal cancer, EC50 (μM) SW480) of 1.08 µM and an EC50 ([1]; SW-620, read-out: Colorectal cancer, EC50 (μM) SW620) of 0.97 µM. The EC50 ([2]; DND41, read-out: Haematopoietic & Lymphoid tumors, EC50 (μM) DND-41) was 1.78 µM, the EC50 ([2]; HL-60, read-out: Haematopoietic & Lymphoid tumors, EC50 (μM) HL-60) was 4.98 µM and the EC50 ([2]; JM1, read-out: Haematopoietic & Lymphoid tumors, EC50 (μM) JM1) was 0.982 µM. For the same molecule, the EC50 ([2]; JeKo-1, read-out: Haematopoietic & Lymphoid tumors, EC50 (μM) JeKo-1) was 1.22 µM, the EC50 ([2]; Jurkat, read-out: Haematopoietic & Lymphoid tumors, EC50 (μM) JURKAT, Clone E6-1) was 3.85 µM and the EC50 ([2]; Kasumi 1, read-out: Haematopoietic & Lymphoid tumors, EC50 (μM) KASUMI-1) was 2.1 µM. The EC50 ([2]; MOLT-4, read-out: Haematopoietic & Lymphoid tumors, EC50 (μM) MOLT-4) was 2.39 µM, the EC50 ([2]; MV4-11, read-out: Haematopoietic & Lymphoid tumors, EC50 (μM) MV-4-11) was 0.275 µM and the EC50 ([2]; Rec1, read-out: Haematopoietic & Lymphoid tumors, EC50 (μM) REC-1) was 1 µM. For the same molecule, the EC50 ([2]; SU-DHL-4, read-out: Haematopoietic & Lymphoid tumors, EC50 (μM) SUDHL4) was 2.54 µM, the EC50 ([2]; TF-1, read-out: Haematopoietic & Lymphoid tumors, EC50 (μM) TF-1) was 3.41 µM and the EC50 ([2]; Toledo, read-out: Haematopoietic & Lymphoid tumors, EC50 (μM) TOLEDO) was 1.1 µM. It also gave an EC50 ([2]; read-out: Haematopoietic & Lymphoid tumors, EC50 (μM) Loucy) of 1.49 µM, an EC50 ([3]; HepG2, read-out: Liver cancer, EC50 HEPG2) of 3340 nM and an EC50 ([3]; PLC-PRF-5, read-out: Liver cancer, EC50 PLC/PRF/5) of 4020 nM. The EC50 ([3]; SNU-398, read-out: Liver cancer, EC50 SNU398) was 917 nM, the EC50 ([4]; A-427, read-out: Lung cancer, EC50 (μM) A427) was 3.08 µM and the EC50 ([4]; HCC78, read-out: Lung cancer, EC50 (μM) HCC-78) was 3.72 µM. For the same molecule, the EC50 ([4]; NCI-H460, read-out: Lung cancer, EC50 (μM) NCI-H460) was 3.54 µM, the EC50 ([4]; NCI-H522, read-out: Lung cancer, EC50 (μM) NCI-H522) was 1.99 µM and the EC50 ([5]; OV-90, read-out: Ovarian cancer, EC50 (μM) OV-90) was 3.87 µM. For the same molecule, the EC50 ([5]; OVCAR-3, read-out: Ovarian cancer, EC50 (μM) OVCAR-3) was 1.31 µM, the EC50 ([5]; PA-1, read-out: Ovarian cancer, EC50 (μM) PA1) was 1.58 µM and the EC50 ([5]; TOV112D, read-out: Ovarian cancer, EC50 (μM) TOV-112D) was 2.32 µM. It also gave an EC50 ([6]; BXPC-3, read-out: Pancreatic cancer, EC50 BxPC3) of 4610 nM, an EC50 ([6]; CAPAN-1, read-out: Pancreatic cancer, EC50 Capan1) of 3470 nM and an EC50 ([6]; Capan-2, read-out: Pancreatic cancer, EC50 Capan2) of 3770 nM. For the same molecule, the EC50 ([6]; MIA PaCa-2, read-out: Pancreatic cancer, EC50 MIA PaCa-2) was 1440 nM, the EC50 ([6]; PANC-1, read-out: Pancreatic cancer, EC50 PANC-1) was 4640 nM and the EC50 ([6]; Panc 05.04, read-out: Pancreatic cancer, EC50 PANC 05.04) was 3640 nM. For the same molecule, the EC50 ([6]; read-out: Pancreatic cancer, EC50 UPAFII) was 1870 nM, the EC50 ([7]; 22Rv1, read-out: Prostate cancer EC50 22Rv1) was 2910 nM and the EC50 ([7]; DU-145, read-out: Prostate cancer EC50 Du-145) was 3380 nM. It also gave an EC50 ([7]; LNCaP-Clone-FGC, read-out: Prostate cancer EC50 LNCap clone FGC) of 4180 nM, an EC50 ([7]; PC-3, read-out: Prostate cancer EC50 PC3) of 2580 nM and an EC50 ([7]; VCaP, read-out: Prostate cancer EC50 VCaP (Sigma)) of 7470 nM. For the same molecule, the EC50 (CLK3) was 35 nM.
